Source: article PMC8414802, “Hair Cell Generation in Cochlear Culture Models Mediated by Novel γ-Secretase Inhibitors” (Frontiers in Cell and Developmental Biology, 2021)

Tested on: hair cell genes Atoh1, Pou4f3, Myo7a in OC explants
Experiment: Hair cell gene expression in organ of Corti explants (RT-PCR)
Type: cell-based, mouse
Settings: 4 days, vs DMSO
Protocol: OC explants were isolated from postnatal day 2 (P2) Wistar rats, P0-P2 mice (Lgr5-GFP or Atoh1-nGFP mice). Dissection of the cochlea under a stereomicroscope (Nikon SMZ800, Japan) allowed OC separation from stria vascularis and modiolus, and the sensory epithelium was plated with hair cells facing up on Cell-Tak (Corning, United States)-coated transwell-clear inserts (6-well format, 0.4 μm pore, Corning, United States). Dissection medium was exchanged for 1.5 ml full otic medium supplemented with 10% FBS (Invitrogen) and 0.01% Ampicillin (Sigma), added under the insert membrane, maintaining the OC under a thin film of medium during culture at 37°C. 5-ethyl-2′-deoxyuridine (EdU, 5 μM, Life Technologies) was added directly in the medium when indicated.
Concentrations of small molecule GSIs {LY411575, CPD3, CPD8, DAPT (N-[N-(3,5-Difluorophenacetyl)-L-alanyl]-S-phenylglycine t-butyl ester; Sigma)} were prepared in DMSO and are indicated in Figure Legends and Results. DMSO included as Control. Treatment groups were assigned randomly.
Cells or tissue were lysed using RLT Lysis Buffer (Qiagen) and high purity RNA was prepared on the MagNA Pure instrument using MagNA Pure 96 Cellular RNA LV Kit (Roche). Reagents from Thermo Fisher were used for cDNA synthesis by reverse transcription using random hexamers. Resulting cDNA was RNAse H treated and amplified by TaqMan GEX mastermix and PCR primers and probes for human ATOH1 (Hs00944192_s1) and TBP (Hs00427620_m1), mouse Tbp (Mm00446971_m1), Atoh1 (Mm00476035_s1), Hes5 (Mm00439311_g1), Pouf4s (Mm04213795_s1), and Myo7a (Mm01274015_m1) on the Applied Biosystems QuantStudio 7 Flex Real-Time PCR System. Normalized to Tbp, relative gene expression fold-change was quantified and compared between experimental and control conditions by ΔΔCt calculation.
FIGURE 2 GSI-mediated induction of hair cell gene expression and de novo generation of hair cells in the neonatal cochlear sensory epithelium. (A) Gene expression changes of Atoh1, Pou4f3, and Myo7a in response to Notch pathway inhibition by CPD3 (solid lines, triangles) and CPD8 (dashed lines, open square) in otic spheres. Gene expression is reported as fold-change relative to carrier control-treated (DMSO, 0.05%). (n = 9–12). […] (B) Gene expression analysis for the hair cell genes Atoh-1, Myo7a, and Pou4f3. DMSO control n = 13, CPD3 n = 12, LY411575 n = 9, DAPT n = 6 from 2–4 independent experiments. OC explants were cultured for 4 days with/without GSI prior to lysis and analysis. One-way ANOVA with Dunnett’s multiple comparison test, each condition compared to DMSO control. (*p < 0.05, **p < 0.005, ***p < 0.001). (C) Cell counts of Atoh1 positive HCs (OHC left, IHC right) in the mouse cochlear sensory epithelium in the mid-apex region after 7 days in culture with different γ-secretase inhibitors. One-way ANOVA Dunnett’s multiple comparison test, each condition compared to DMSO control. (*p < 0.05; n = 3–5 independent experiments). (D) Quantification of Pou4f3 positive HCs (OHC left, IHC right) in the cochlear sensory epithelium from P2 rats in the apical domain after 8 days in culture with different γ-secretase inhibitors. One-way ANOVA with Dunnett’s multiple comparison test, each condition compared to DMSO control (*p < 0.05, n = 3). Representative immunohistological images of the apical domain after 8 days incubation (inset). scale bar = 20 μm. (E) Quantification of Pou4f3 positive OHCs in the apex, middle and basal domain of organ of Corti explants from rats after 4 days of CPD3 treatment compared to DMSO (*p < 0.05, unpaired t-test) n = 4–6 explants from 2 independent experiments.

Compound	Atoh1 expression (1 μM) [fold]	Myo7a expression (1 μM) [fold]	Pou4f3 expression (1 μM) [fold]	Atoh1 expression (5 μM) [fold]	Myo7a expression (5 μM) [fold]	Pou4f3 expression (5 μM) [fold]
COc1ccc2c(c1)N1CCC(C)(C)C1=CC(=O)[C@H]2NC(=O)[C@H](C)NC(=O)CCC(F)(F)F [CPD3]	3.7 ± 0.54	1.73 ± 0.33	2.04 ± 0.35	–	–	–
C[C@H](NC(=O)[C@@H](O)c1cc(F)cc(F)c1)C(=O)N[C@@H]1C(=O)N(C)c2ccccc2-c2ccccc21 [LY411575]	–	–	–	4.34 ± 0.82	1.42 ± 0.31	1.46 ± 0.26
